The record followed here is patent US20110319811A1 (priority 2010, published 2011).

A short description of the data set: Pharmacokinetic study GW01-0706 under maximal use conditions (serum imiquimod). The format is in vivo, human. Here is the method:
An open label, single center, non-randomized pharmacokinetic (PK) study in adult subjects diagnosed with actinic keratosis (“AK”) is conducted. […] The study is conducted under maximal use conditions (dose, duration, disease severity, and application areas) in a population that had at least 10 AK lesions in the application area. The application area is the entire face (exclusive of nares, vermilion, periocular areas and ears) and/or the entire balding scalp; areas estimated as approximately 200 cm^2. If the area of the entire balding scalp is less than 200 cm^2, the forehead area is included in order for the entire treatment area to be approximately 200 cm^2.
Subjects stay at the study center overnight at treatment initiation (Day 1, 1st dose), and end of treatment (Day 21, last dose) visits for collection of a 24-hour serum PK profile. […] Single serum samples for PK analyses of trough concentrations are obtained at Day 7 and Day 14 (in the morning prior to dosing).
Adverse events, study medication accountability, and dosing compliance are reviewed at each visit. Routine clinical laboratory assessments (serum chemistry, hematology and urinalysis) are performed at Screening, Day 1 (predose), and the end of study visits.
Trough serum concentrations are obtained on Days 7, 14, 21, and 22. The trough concentrations on Days 7 and 14 are obtained during outpatient treatment while the trough concentrations on Days 21 and 22 are obtained while the subjects are dosed in the clinical research facility.

Where [1] appears, read: Steady-State (Day 21), 3.75% imiquimod cream 2 packets daily.

Like-named read-outs stand apart in the source and are kept apart here.

On to `CC(C)Cn1cnc2c(N)nc3ccccc3c21` [imiquimod, 1-isobutyl-1H-imidazo[4,5-c]-quinolin-4-amine], for which the “Imiquimod trough concentration, Geometric LS Mean Reference” value (Day 21/14 comparison (Reference = Day 14), subjects with paired, non-zero data, 3.75% imiquimod cream 2 packets daily) was found to be 0.1344 ng/mL. For the same molecule, the “Imiquimod trough concentration, Geometric LS Mean Test” value (Day 21/14 comparison (Test = Day 21), subjects with paired, non-zero data, 3.75% imiquimod cream 2 packets daily) is on record as 0.1791 ng/mL. Under setting [1], the “λz, Geometric Mean” value amounted to 0.027 h⁻¹; the “λz, Mean” value stood at 0.029 h⁻¹; the “λz, Median” value was determined as 0.0271 h⁻¹. Where the note is “human, topical”, this molecule yielded a concentration at 7 day (trough) of 0.128 ng/mL, a concentration at 14 day (trough) of 0.139 ng/mL, a concentration at 21 day (trough) of 0.179 ng/mL and a concentration at 22 day (trough) of 0.167 ng/mL. Further, the AUC(0-t) (human, topical, Steady-State (Day 21), 3.75% imiquimod cream 2 packets daily, read-out: AUC0-24, Geometric Mean) is 5.03 ng·h/mL. Where the note is “human, topical, Steady-State (Day 21), 3.75% imiquimod cream 2 packets daily, read-out: AUC0-24, Mean”, the AUC(0-t) turned out to be 5.97 ng·h/mL. For the same molecule, the AUC(0-t) (human, topical, Steady-State (Day 21), 3.75% imiquimod cream 2 packets daily, read-out: AUC0-24, Median) was 7.02 ng·h/mL. Further, the Cmax (human, topical, Steady-State (Day 21), 3.75% imiquimod cream 2 packets daily, read-out: Cmax, Geometric Mean) amounted to 0.274 ng/mL. Moreover, the highest concentration (Cmax) (human, topical, Steady-State (Day 21), 3.75% imiquimod cream 2 packets daily, read-out: Cmax, Mean) came to 0.323 ng/mL. The Cmax (human, topical, Steady-State (Day 21), 3.75% imiquimod cream 2 packets daily, read-out: Cmax, Median) stood at 0.35 ng/mL.
